Data from US20170313669A1, “LACTONE COMPOUNDS AND METHODS OF MAKING AND USING SAME” (THE SCRIPPS RESEARCH INSTITUTE, priority 2015, published 2017).

How the values were obtained:
COLO205 cells = assay: PS lipase activity of membrane fraction after in situ treatment; conditions: 1 μM, 4 h
ABHD16A−/− macrophages = assay: Lyso-PS and cytokines of ABHD16A−/− macrophages; assay type: cell-based, mouse; conditions: basal or LPS stimulation; 1 μM, 4 h
Experimental: Concentration of secreted lyso-PS (a) and cytokines IL-6 (b) and TNF-α (c) from thioglycollate-elicited peritoneal mouse macrophages from ABHD16A^−/− mice treated with inhibitor (KC01 or KC02, 1 μM, 4 h) followed by vehicle (PBS) or LPS (5 μg/mL) for 7 h is shown. Data represent mean±s.e.m. for four biological replicates. KC01 and KC02 have no effect on lyso-PS or cytokine secretion. Other secreted and cellular lipids in ABHD16A^−/− macrophages were also unchanged by KC01 or KC02 treatment (data not shown).
(§1) Peritoneal macrophages were elicited and harvested from mice according to the standard protocols available from LIPID MAPS (See http://www.lipidmaps.org/protocols/PP0000001400.pdf and http://www.lipidmaps.org/protocols/PP0000001500.pdf). After removal of the RBC lysis buffer, the macrophages were re-suspended in RPMI 1640 with 10% FCS and IX penicillin-streptomycin. Cell counts measured using a Bio-Rad TC10 automated cell counter, and equal numbers of cells (2×10^6) were plated in 10 cm tissue culture dishes. Macrophages were allowed to adhere to the plates for 2 h at 37° C. and 5% CO2. […] Macrophages were then stimulated with lipopolysaccharide (5 μg/mL) for 7 hours. Sterile PBS was the vehicle in these studies. Four milliliters of the media was used for measuring secreted metabolites, and 0.5 mL was used for cytokine measurements.

ABHD12−/− macrophages = assay: Lyso-PS and cytokine secretion of ABHD12−/− macrophages; assay type: cell-based, mouse; conditions: pre-treatment 1 μM, 4 h
Experimental: (a, b) Concentrations of secreted cytokines from ABHD12^+/+ and ABHD12^−/− thioglycollate-elicited peritoneal macrophages that were either unstimulated (PBS) (a) or stimulated (b) with LPS (5 μg/mL, 7 h). […] Student's t-test: * p<0.05 for ABHD12^−/− and ABHD12^+/+ groups. (c) Concentrations of secreted lyso-PS from ABHD12^+/+ and ABHD12^−/− macrophages treated with vehicle (PBS) or LPS (5 μg/mL) for 7 h. […] Student's t-test: ** p<0.0005, *** p<0.0001 for KC01-treated versus DMSO-treated groups.
as §1

[1] = biological target: T1, PS lipase activity of human lymphoblast cell lines (LCLs) (Homo sapiens, UniProt O95870); assay: PS lipase activity of LCL membrane proteomes; assay type: biochemical; conditions: proteomes pre-treated 1 μM, 30 min, 37° C.
T1 construct: PS lipase activity of membrane proteomes from indicated LCLs; endogenous in cells; host or cells: human lymphoblast cell lines (PHARC subject, relatives, controls), membrane proteome
T1 sequence (O95870 whole entry): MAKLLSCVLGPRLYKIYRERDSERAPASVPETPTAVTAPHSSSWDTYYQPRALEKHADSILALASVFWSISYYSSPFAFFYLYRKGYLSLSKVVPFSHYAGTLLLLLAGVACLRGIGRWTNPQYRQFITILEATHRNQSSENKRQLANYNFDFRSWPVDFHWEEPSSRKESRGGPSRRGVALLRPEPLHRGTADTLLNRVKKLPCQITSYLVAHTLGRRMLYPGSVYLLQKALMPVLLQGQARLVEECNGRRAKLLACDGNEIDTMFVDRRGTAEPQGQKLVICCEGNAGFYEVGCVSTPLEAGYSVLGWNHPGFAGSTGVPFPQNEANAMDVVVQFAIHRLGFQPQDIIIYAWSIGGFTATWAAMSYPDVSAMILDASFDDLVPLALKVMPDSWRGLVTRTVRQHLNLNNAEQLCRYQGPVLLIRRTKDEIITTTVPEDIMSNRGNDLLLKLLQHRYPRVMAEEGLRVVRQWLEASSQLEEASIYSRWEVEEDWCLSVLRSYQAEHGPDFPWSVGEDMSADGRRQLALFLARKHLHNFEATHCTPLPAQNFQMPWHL
Source text: For part (a), Student's t-test: ** p<0.005 for PHARC LCL versus Control 1 or Control 2 LCLs.

mouse ABHD16A = biological target: T2, mouse ABHD16A (Mus musculus, UniProt Q9Z1Q2); assay: PS substrate assay, mouse ABHD16A-transfected HEK293T proteome; assay type: biochemical; conditions: 30 min, 37° C.; C18:0/C18:2 PS 100 μM; read-out: IC50, PS-lipase activity
T2 construct: full-length cDNA of human ABHD16A (Open Biosystems Catalog # MHS6278-202758315) or murine ABHD16A (Open Biosystems Catalog # MMM1013-202760516); host or cells: HEK293T, transient, pCMV-SPORT6
T2 sequence (Q9Z1Q2 1-558): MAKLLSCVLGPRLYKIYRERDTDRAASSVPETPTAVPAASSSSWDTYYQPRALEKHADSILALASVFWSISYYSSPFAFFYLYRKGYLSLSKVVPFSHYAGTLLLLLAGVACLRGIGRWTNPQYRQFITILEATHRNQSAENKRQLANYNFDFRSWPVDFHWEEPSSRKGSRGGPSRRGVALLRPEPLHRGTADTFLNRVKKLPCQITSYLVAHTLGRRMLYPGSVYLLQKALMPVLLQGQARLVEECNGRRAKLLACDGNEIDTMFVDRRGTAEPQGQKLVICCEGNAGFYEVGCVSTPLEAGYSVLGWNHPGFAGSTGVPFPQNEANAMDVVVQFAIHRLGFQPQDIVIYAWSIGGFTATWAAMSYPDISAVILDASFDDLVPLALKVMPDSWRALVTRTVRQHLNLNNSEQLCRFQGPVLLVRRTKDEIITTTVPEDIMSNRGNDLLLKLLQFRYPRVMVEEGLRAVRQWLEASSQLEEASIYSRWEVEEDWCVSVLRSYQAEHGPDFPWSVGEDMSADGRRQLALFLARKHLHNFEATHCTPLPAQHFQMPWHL

[2] = biological target: mouse brain membrane PS lipase activity (Mus musculus, UniProt Q9Z1Q2); assay type: biochemical; conditions: two-month old ABHD12+/+ and ABHD12−/− mice
[3] = tested on: additional off-targets (serine hydrolases); assay: ABPP-SILAC, COLO205 cells treated in situ; assay type: cell-based, human; conditions: 1 μM, 4 h
MCF7 cells = assay: PS lipase activity of membrane fraction after in situ treatment; conditions: 1 μM, 4 h

## CCCCCCCCCCCCCC1OC(=O)/C1=C\CCCCC(N)=O (centres unmarked) [KC01, (Z)-6-(2-oxo-4-tridecyloxetan-3-ylidene)hexanamide]
COLO205 cells
  decrease of PS-lipase activity vs DMSO: > 90%
ABHD16A−/− macrophages
  cellular or secreted lyso-PS, other lipids, secreted IL-6 and TNF-α: No changes
ABHD12−/− macrophages
  LPS-induced increases in lyso-PSs and cytokine secretion: both blocked
[1]
  PS lipase activity: substantially reduced
Mouse ABHD16A
  IC50: 0.52 ± 0.07 µM
[2]
  PS lipase activity of brain membrane lysates: inhibited the PS lipase activity
[3]
  inhibition: 50-80%
MCF7 cells
  decrease of PS-lipase activity vs DMSO: > 90%
